From ChEMBL document CHEMBL1201862, “PubChem BioAssay data set” (2004)
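Method: 48-hour compound exposure of cells in 96-well plates, five concentrations, linear interpolation of endpoints. GI50 marks 50% less growth.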 Active and inactive are the calls of the source. Cut-off read from the data, not from the text of the source: active = GI50 up to about 1.1 µM and inactive = higher.

How the values were obtained:
Experiment in all cases: inhibition of tumour cell growth, NCI panel, 48 h
CAKI-1 = system: CAKI-1
CCRF-CEM = system: CCRF-CEM
DU-145 = system: DU-145
EKVX = system: EKVX
HCT-116 = system: HCT-116
HL-60 = system: HL-60
HOP-92 = system: HOP-92
HT-29 = system: HT-29
MDA-N = system: MDA-N
NCI-H23 = system: NCI-H23
OVCAR-4 = system: OVCAR-4
OVCAR-5 = system: OVCAR-5
OVCAR-8 = system: OVCAR-8
SF-295 = system: SF-295
SF-539 = system: SF-539
SK-MEL-28 = system: SK-MEL-28
SK-MEL-2 = system: SK-MEL-2
SNB-75 = system: SNB-75
SR = system: SR
UACC-62 = system: UACC-62

SMILES	GI50 (CAKI-1)	GI50 (CCRF-CEM)	GI50 (DU-145)	GI50 (EKVX)	GI50 (HCT-116)	GI50 (HL-60)	GI50 (HOP-92)	GI50 (HT-29)	GI50 (MDA-N)	GI50 (NCI-H23)	GI50 (OVCAR-4)	GI50 (OVCAR-5)	GI50 (OVCAR-8)	GI50 (SF-295)	GI50 (SF-539)	GI50 (SK-MEL-28)	GI50 (SK-MEL-2)	GI50 (SNB-75)	GI50 (SR)	GI50 (UACC-62)
COc1cccc2c1C(=O)C(=O)c1c-2oc(=O)c2cc(C)cc(OC)c12	67.5 µM (inactive)	17.5 µM (inactive)	13.6 µM (inactive)	22.5 µM (inactive)	27.4 µM (inactive)	25.7 µM (inactive)	59.2 µM (inactive)	22.6 µM (inactive)	17.5 µM (inactive)	19.3 µM (inactive)	14.9 µM (inactive)	> 75 µM (inactive)	14.9 µM (inactive)	45.3 µM (inactive)	63 µM (inactive)	53.6 µM (inactive)	16 µM (inactive)	22.6 µM (inactive)	8.91 µM (inactive)	31 µM (inactive)
O=[N+]([O-])C(=C1NCCN1)/C(Cl)=C(\Cl)Br	16.3 µM (inactive)	7.1 µM (inactive)	> 100 µM (inactive)	> 43.4 µM (inactive)	28.8 µM (inactive)	10.6 µM (inactive)	34.4 µM (inactive)	30.1 µM (inactive)	34.5 µM (inactive)	> 49.8 µM (inactive)	46.5 µM (inactive)	> 100 µM (inactive)	40.3 µM (inactive)	> 100 µM (inactive)	> 63 µM (inactive)	32 µM (inactive)	45.6 µM (inactive)	27.2 µM (inactive)	21.5 µM (inactive)	43.1 µM (inactive)
Cc1cccc(/N=N/c2c(C)nn(C(=O)CC(=O)Nc3ccccc3)c2C)c1	> 100 µM (inactive)	> 100 µM (inactive)	> 100 µM (inactive)	> 100 µM (inactive)	> 100 µM (inactive)	> 100 µM (inactive)	> 100 µM (inactive)	> 100 µM (inactive)	> 100 µM (inactive)	> 100 µM (inactive)	> 100 µM (inactive)	> 100 µM (inactive)	> 100 µM (inactive)	> 100 µM (inactive)	> 100 µM (inactive)	> 100 µM (inactive)	> 100 µM (inactive)	> 100 µM (inactive)	> 100 µM (inactive)	> 100 µM (inactive)
COc1cc2c(cc1OC)C(Cl)C(c1ccc(Br)cc1)=C2Cl (stereo not given)	15.1 µM (inactive)	10.7 µM (inactive)	11.3 µM (inactive)	10.6 µM (inactive)	9.16 µM (inactive)	5.46 µM (inactive)	12.1 µM (inactive)	13.3 µM (inactive)	3.23 µM (inactive)	9.95 µM (inactive)	13.8 µM (inactive)	15.4 µM (inactive)	10.1 µM (inactive)	14.9 µM (inactive)	12.4 µM (inactive)	14.8 µM (inactive)	9.08 µM (inactive)	13.3 µM (inactive)	2.62 µM (inactive)	11.2 µM (inactive)
NC(=O)NC(=O)c1cccc(NC(=O)CI)c1	< 0.01 µM (active)	< 0.01 µM (active)	0.0344 µM (active)	0.863 µM (active)	< 0.01 µM (active)	< 0.01 µM (active)	< 0.01 µM (active)	< 0.0178 µM (active)	< 0.01 µM (active)	< 0.0212 µM (active)	0.148 µM (active)	0.151 µM (active)	< 0.0123 µM (active)	0.274 µM (active)	< 0.0229 µM (active)	0.389 µM (active)	0.0361 µM (active)	0.235 µM (active)	< 0.01 µM (active)	< 0.0152 µM (active)
Nc1nc(Cl)cc(NCC2(CO)CCC(O)C2)n1 (stereo not given)	> 100 µM (inactive)	> 100 µM (inactive)	> 100 µM (inactive)	> 100 µM (inactive)	> 100 µM (inactive)	> 100 µM (inactive)	> 100 µM (inactive)	> 100 µM (inactive)	> 100 µM (inactive)	> 100 µM (inactive)	> 100 µM (inactive)	> 100 µM (inactive)	> 100 µM (inactive)	> 100 µM (inactive)	> 100 µM (inactive)	> 100 µM (inactive)	> 100 µM (inactive)	> 100 µM (inactive)	> 100 µM (inactive)	> 100 µM (inactive)
